Data from US5395611A, “Phenolic amine depigmenting and antimelanoma agents” (The Governors of the University of Alberta, priority 1992, dated 1995).
Entries after “also recorded” stand apart in the source; their conditions may differ.

Columns and labels:
[1] = tested on: melanoma; settings: in words; cited from earlier work
[2] = hydroquinone preparations; cited from earlier work
[3] = tested on: skin; settings: cited from earlier work
[4] = tested on: black hair follicles; test: Depigmentation of new hair (eumelanin/PTCA content); type: in vivo, C57BL/6J black mice; settings: for Depigmentation of new growth of black hair follicles: in words; for PTCA Content / Depigmentation: 300 mg/kg daily for 14 days, hair day 22
Procedure: Female progeny were used in this testing when approximately 8 weeks old and weighing 17 grams.
Thirty mice were randomized into 6 groups of 5 (1 control and 1 for each compound). Starting on day 1, daily for 14 days the agent was injected i.p. or was infiltrated s.c. in an area where hair follicles had been plucked; the dose was 300 mg/kg body weight.
In the same 30 mice, hair follicles were harvested on day 22 (early telogen phase) and their eumelanin content analyzed. […] Briefly, a 10-mg hair sample is homogenized in water at a concentration of 10 mg/ml; the 200-μl homogenate is transferred to a screw-capped test tube, mixed with 1M H2 SO4 (800 μL) and oxidized with 3% KMnO4. The product, pyrrole-2,3,5-tricarboxylic acid (PTCA), is analyzed by HPLC with a UVL detector; samples are measured in duplicate. The eumelanin content is expressed as PTCA (ng/mg) against the PCTA content of BALB/c albino mice as control (≤10 ng/mg, the background value with our method, in which 1 ng corresponds roughly to a eumelanin content of 50 ng), and the degree of depigmentation is expressed as a percentage: (PTCA content of control sample minus PTCA content of experimental sample)/(PCTA content of control sample)×100.

[5] = in vivo; settings: mouse
Procedure: 3:1-85 1972. In accordance with this Protocol, ten to fifteen mice were used in each test group. They were weighed and randomized at day one after s.c. inoculation of B16 melanoma cells. From day five, the phenolic melanin precursors were administered i.p. daily for nine days. The test compounds were dissolved in normal saline, and sterilized by heating to 100° C. for 2 minutes. […] They were administered j.p. with the following doses: 400 mg/Kg - 4-S-CAP; 200 to 300 mg/Kg - 4-S-CAP; and 200 to 1200 mg/Kg - N-Ac-4-S-CAP. A catalytic amount of L-dopa, 25 mg/Kg and antidecarboxylase, carbidopa, 400 mg/Kg, were also administered. Carbidopa was given one hour prior to L-dopa administration. DTIC (NSC 4538) was used as a control drug at a dose of 60 mg/Kg. Acute toxicity of 4-S-CP and 4-S-CAP was evaluated from 100 to 1600 mg/Kg.
The B16 mouse melanoma was maintained by s.c. inoculation of tumour cells into the back of C57BL7J mice (5 to 6 weeks, female). […] Briefly, excised tumours were homogenized in normal saline. The homogenized tumour cells were then passed through a sterile 80 mesh stainless steel screen, washed with normal saline, centrifuged (500 g. for 10 minutes) and resuspended in normal saline. Suspensions of viable melanoma cells at the concentration of 1×10^6 per 0.1 ml were inoculated s.c. into both the right and left inguinal areas of C57BL/6J mice (female, 5 to 6 weeks old, 18 to 20 gm).

[6] = tested on: melanocytes; test: Light and electron microscopy of follicular melanocytes; type: in vivo, mice; settings: for Cytotoxicity for follicular depigmentation: conclusion in words; for Electron microscopy of melanocytes/melanosomes: 10 days
Procedure: In […] of 4 mice (1 control and 1 for each compound) were treated daily with the control or compound injected i.p. The compounds tested were 4-S-CAP, N-Ac-4-S-CAP and α-Me-4-S-CAP. Samples of skin and regrowing hair follicles were excised under brief general anaesthesia on day 10 (late anagen phase), fixed in Karnovsky's solution (2.5% glutaraldehyde and 2.5% paraformaldehyde in 011M cacodylate buffer), and refixed in 1% osmium tetroxide in cadodylate buffer. Tissues were stained en bloc with 1.5% uranyl acetate in o.1M veronal buffer for 30 min, dehydrated in graded ethanol solutions, embedded in epoxy resin, and sectioned with a Potter-Blum ultramicrotome MT II. Sections 1.0 μm thick were stained with methylene blue for light microscopy, thin sections were stained with led citrate for electron microscopy.

[7] = tested on: B16 melanoma; test: In vivo growth inhibition of s.c. inoculated B16 melanoma; design: species or system mouse
Procedure: Briefly, excised tumours were homogenized in normal saline.
The in vivo antimelanoma effect of the compounds were evaluated by percent growth inhibition of inoculated tumour (% g.i.). The percent g.i. was computed from the mean tumour volume at day 12 or 13 of the experiments; i.e., 100× (1- treated group/control group). Tumour volume was calculated by the following formula:
tumour volume=long axis×(short axis)^2 ×1/2.

[8] = Urinary excretion after i.p. injection (metabolic assay); type: in vivo, mice
Procedure: Fifteen mice randomly divided into three groups of five were injected i.p. with a test agent (300 mg/kg) dissolved in N saline solution. Group 1 were injected with 4-S-CAP, group 2 with N-Ac-4-S-CAP, group 3 were controls. The mice are kept in metabolic cages; their urine is collected 3, 8 and 24 hr after injection, and the 4-S-CAP and N-Ac-4-S-CAP content is measured by HPLC in a system consisting of a Waters 600E liquid chromatography, with a Bondapak C18 column (3.0×300 mm; particle size, 10 μm) and a Waters 460 electrochemical detector. Mobile phase: 0.1M potassium phosphate buffer, pH 2.1, containing 0.1 mM Na2 EDTA methanol, 80:20 (v/v); column temperature, 60° C.; flow rate 1.0 ml/min. Urine samples are hydrolysed with 0.1M HCl before assay, and the phenols are detected at 850 mV against an Ag/AgCl reference electrode.

[9] = tested on: mushroom tyrosinase; test: Enzyme kinetics for tyrosinase; type: biochemical; settings: in words
Procedure: (§1) Mushroom tyrosinase (400 units/mg) and plasma MAO (1000 units/gm) were obtained from Sigma Chemical Co. (St. Louis, Mo., USA). A reaction mixture consisted of a substrate of 7 to 8 different concentrations (40 to 500 μM for mushroom tyrosinase and 20 to 200 μM for MAO) and of either mushroom tyrosinase (2.5 μg) or MAO (10 μg) in 1.0 mL of 0.05M sodium phosphate buffer, pH 6.8 and 7.4 respectively. The reactions were carried out at 37° C. in a shaking water bath, and stopped by taking 100 μL of the reaction mixture and adding it to 900 μL of 0.4M HCLO4. The disappearance of substrate was followed using HPLC (high pressure liquid chromatography) Km and Vmax values were calculated from the Lineweaver-Burk plots.
^a mushroom tyrosinase; 11 unit/ml of tyrosinase was used. One enzyme
unit will cause an increase in A280 of 0.001 per min at pH 6.8 at
25° C. using Ltyrosine as substrate.

[10] = tested on: B16F10 melanoma colonies; test: Melanoma-colony formation in the lungs; type: in vivo, mouse
Procedure: Murine B16F10 melanoma cell line with a strong metastatic property to form tumour colonies in the lungs was obtained from Dr. Longenecker, Department of Immunology, University of Alberta. Such cell line is well recognized and readily available as reported in Miura et al, supra. The cells were grown in T-75 flasks in dulbecco's MEM available from Gipco Lab Inc., Grand Island, N.Y., supplemented with 10% fetal calf serum, also obtained from Gipco, penicillin (100 μ/ml) and streptomycin (100 μg/ml). The cells were incubated at 37° C. in humidified atmosphere of 5% CO2 in air. […] Viable cells were identified by trypan blue dye exclusion and counted. The cell suspension was diluted to the desired concentration. […] On day zero, the mice were inoculated via the lateral tail vein with 5×10^4 cells in 0.2 ml of N saline. The test drugs were dissolved in normal saline, sterilized by membrane filtration, and administered in a dose of 300 mg/Kg (4 -S-CAP) or 900 mg/Kg (N-Ac-4-S-CAP); starting on day five, the control solution or drug was injected i.p. daily for 14 days. On day 26, the mice were killed by cervical dislocation, their lungs were removed, and the number of melanoma colonies was counted under a dissecting microscope. The results were expressed as percentage reduction in the number of colonies: [a-b/a]×100, where a=colonies in control group and b=colonies in experimental group.

[11] = tested on: plasma monoamine oxidase (MAO); test: Enzyme kinetics for monoamineoxidase (plasma MAO); type: biochemical; settings: in words
Procedure: as §1

[12] = tested on: follicular melanocytes; settings: in words; cited from earlier work
[13] = acute toxicity, evaluated 100 to 1600 mg/Kg (Miura et al); cited from earlier work

## COC(=O)C(N)CSc1ccc(O)cc1 (stereo not drawn) [methyl ester of 4-S-CP]
[1]
  Inhibition of melanoma growth: some inhibition of melanoma growth, although not as active as the 4-S-CAP

## Oc1ccc(O)cc1 [hydroquinone]
[2]
  Stability: very unstable
[3]; hydroquinone preparations
  Skin irritation: cause skin irritation
[3]; prolonged period and high concentration
  Permanent whitening of the skin: can also cause permanent whitening of the skin

## NCCCSc1ccc(O)cc1 [4-S-HomoCAP]
[4]
  Depigmentation of new growth of black hair follicles: much more depigmentation when given s.c. than i.p.
[4]; s.c.
  PTCA Content: 397.7 ± 279.3 ng/mg

## CN(C)CCSc1ccc(O)cc1 [N,N-DiMe-4-S-CAP]
[4]; i.p.
  Depigmentation: 7.3%
  PTCA Content: 1009.0 ± 193.5 ng/mg
[4]
  Depigmentation of new growth of black hair follicles: the lowest; also recorded: no significant depigmentation
[4]; listed as N,N-Di-Me-4-S-CAP
  Depigmentation of new growth of black hair follicles: no visible changes in pigmentation in new follicles
[4]; s.c.
  Depigmentation: 6.1%
  PTCA Content: 1023.4 ± 110.1 ng/mg

## CC(N)CSc1ccc(O)cc1 (stereo not drawn) [α-Me-4-S-CAP]
[4]; i.p., 300 mg/kg
  Depigmentation: 89%
[4]
  Depigmentation of new growth of black hair follicles: i.p. administration induced more depigmentation than s.c.
[4]; s.c. administration, plucked area
  Irritation of the skin: some irritation of the skin in the plucked area
[4]; s.c., 300 mg/kg
  Depigmentation: 58%
[5]
  Single dose toxicity level: ~500 mg/kg of body weight
[6]
  Cytotoxicity for follicular depigmentation: greatest cytotoxicity for follicular depigmentation
[6]; i.p.
  Electron microscopy of melanocytes/melanosomes: contained immature melanosomes at stages II and III

## CC(=O)NCCSc1ccc(O)cc1 [N-Ac-4-S-CAP, N-ACETYL-4-S-CYSTEAMINYLPHENOL]
[4]
  Depigmentation of new growth of black hair follicles: most marked; also recorded: no statistically significant difference in melanin content between hair follicles with N-Ac-4-S-CAP and control albino mice
[5]
  Single dose toxicity level: ~1,400 mg/kg of body weight
[5]; ip
  LD50: ≤ 1400 mg/kg
  MTD: 1200 mg/kg
[7]; Experiment I, 200 mg/Kg
  % Gi (growth inhibition): 39.8%
[7]; Experiment I, 400 mg/Kg
  % Gi (growth inhibition): 57.3%
[7]; Experiment I, 600 mg/Kg
  % Gi (growth inhibition): 63.18%
[7]; Experiment I, 800 mg/Kg
  % Gi (growth inhibition): 74.4%
[7]; Experiment II, 200 mg/Kg
  % Gi (growth inhibition): 32.0%
  Tumour Volume: 370 ± 37 mm^3
[7]; Experiment II, 400 mg/Kg
  % Gi (growth inhibition): 34.0%
[7]; Experiment II, 800 mg/Kg
  % Gi (growth inhibition): 63.4%
[7]; Experiment II, 1200 mg/Kg
  % Gi (growth inhibition): 70.7%
[7]; in words
  Growth inhibition of B16 melanoma: dose-dependent linear growth inhibition; also recorded: significant reduction in size of s.c. inoculated melanoma
[8]; 3 h after i.p. injection, 5.2 mg/mouse, unit printed ng
  Urinary excretion of unchanged compound, amount: 7.23e-07 ± 2.7e-08 mg
[8]; 8 h after i.p. injection, 5.2 mg/mouse
  Urinary excretion of unchanged compound, amount: 1.034 ± 0.033 mg
[8]; 24 h after i.p. injection, 5.2 mg/mouse
  Urinary excretion of unchanged compound, amount: 1.089 ± 0.028 mg
[8]; urine, i.p. injection
  i.p. dose excreted as 4-S-CAP, amount: 0.066 ± 0.003 mg
[8]; urine, ip, 300 mg/kg, 3 h after i.p. injection, 5.2 mg/mouse, read-out: Urinary excretion of unchanged compound, % of dose
  dose excreted at 3 h: 13.9%
[8]; urine, ip, 300 mg/kg, 8 h after i.p. injection, 5.2 mg/mouse, read-out: Urinary excretion of unchanged compound, % of dose
  dose excreted at 8 h: 19.8%
[8]; urine, ip, 300 mg/kg, 24 h after i.p. injection, 5.2 mg/mouse, read-out: Urinary excretion of unchanged compound, % of dose
  dose excreted at 24 h: 20.4%
[9]
  Substrate for tyrosinase: tyrosinase substrate
[10]; 900 mg/kg i.p. daily for 14 days, day 26
  Colonies, % control: 24.9%
[10]; in words
  Number of B16F10 melanoma colonies: significantly reduced
[10]; summary statement
  Melanoma lung colonies reduced to % of original volume: 25%
[6]
  Cytotoxicity for follicular depigmentation: greatest cytotoxicity for follicular depigmentation
[6]; i.p.
  Electron microscopy of melanocytes/melanosomes: no melanocytes or melanosomes were visible
[6]; i.p., day 10
  Light microscopy of hair follicles: neither functioning melanocytes nor melanin pigments remained in the follicles
[11]
  Substrate for plasma MAO: not, however, a substrate for plasma MAO

## NC(CSc1ccc(O)cc1)C(=O)O (stereo not drawn) [4-S-CP, 4-S-cysteinylphenol]
[12]
  Effect on black hair follicles / black hair: depigmentation of black hair as manifested by loss of functioning melanocytes
[13]
  Lethal dose: 600 mg/kg
[1]
  Inhibition of melanoma growth: some inhibition of melanoma growth, although not as active as the 4-S-CAP
